{"source": "paper PMC3873810", "about": "“Structure–Activity Relationship of Adenosine 5′-diphosphoribose at the Transient Receptor Potential Melastatin 2 (TRPM2) Channel: Rational Design of Antagonists” (Journal of Medicinal Chemistry, 2013)", "key": {"human TRPM2": {"biological_target": "T1, human TRPM2 (Homo sapiens, UniProt O94759)", "T1 construct": "Specific bands of full length TRPM2 (black arrow) and degradation products (gray arrows) are marked; expressed in transfected cells", "T1 sequence (O94759 whole entry)": "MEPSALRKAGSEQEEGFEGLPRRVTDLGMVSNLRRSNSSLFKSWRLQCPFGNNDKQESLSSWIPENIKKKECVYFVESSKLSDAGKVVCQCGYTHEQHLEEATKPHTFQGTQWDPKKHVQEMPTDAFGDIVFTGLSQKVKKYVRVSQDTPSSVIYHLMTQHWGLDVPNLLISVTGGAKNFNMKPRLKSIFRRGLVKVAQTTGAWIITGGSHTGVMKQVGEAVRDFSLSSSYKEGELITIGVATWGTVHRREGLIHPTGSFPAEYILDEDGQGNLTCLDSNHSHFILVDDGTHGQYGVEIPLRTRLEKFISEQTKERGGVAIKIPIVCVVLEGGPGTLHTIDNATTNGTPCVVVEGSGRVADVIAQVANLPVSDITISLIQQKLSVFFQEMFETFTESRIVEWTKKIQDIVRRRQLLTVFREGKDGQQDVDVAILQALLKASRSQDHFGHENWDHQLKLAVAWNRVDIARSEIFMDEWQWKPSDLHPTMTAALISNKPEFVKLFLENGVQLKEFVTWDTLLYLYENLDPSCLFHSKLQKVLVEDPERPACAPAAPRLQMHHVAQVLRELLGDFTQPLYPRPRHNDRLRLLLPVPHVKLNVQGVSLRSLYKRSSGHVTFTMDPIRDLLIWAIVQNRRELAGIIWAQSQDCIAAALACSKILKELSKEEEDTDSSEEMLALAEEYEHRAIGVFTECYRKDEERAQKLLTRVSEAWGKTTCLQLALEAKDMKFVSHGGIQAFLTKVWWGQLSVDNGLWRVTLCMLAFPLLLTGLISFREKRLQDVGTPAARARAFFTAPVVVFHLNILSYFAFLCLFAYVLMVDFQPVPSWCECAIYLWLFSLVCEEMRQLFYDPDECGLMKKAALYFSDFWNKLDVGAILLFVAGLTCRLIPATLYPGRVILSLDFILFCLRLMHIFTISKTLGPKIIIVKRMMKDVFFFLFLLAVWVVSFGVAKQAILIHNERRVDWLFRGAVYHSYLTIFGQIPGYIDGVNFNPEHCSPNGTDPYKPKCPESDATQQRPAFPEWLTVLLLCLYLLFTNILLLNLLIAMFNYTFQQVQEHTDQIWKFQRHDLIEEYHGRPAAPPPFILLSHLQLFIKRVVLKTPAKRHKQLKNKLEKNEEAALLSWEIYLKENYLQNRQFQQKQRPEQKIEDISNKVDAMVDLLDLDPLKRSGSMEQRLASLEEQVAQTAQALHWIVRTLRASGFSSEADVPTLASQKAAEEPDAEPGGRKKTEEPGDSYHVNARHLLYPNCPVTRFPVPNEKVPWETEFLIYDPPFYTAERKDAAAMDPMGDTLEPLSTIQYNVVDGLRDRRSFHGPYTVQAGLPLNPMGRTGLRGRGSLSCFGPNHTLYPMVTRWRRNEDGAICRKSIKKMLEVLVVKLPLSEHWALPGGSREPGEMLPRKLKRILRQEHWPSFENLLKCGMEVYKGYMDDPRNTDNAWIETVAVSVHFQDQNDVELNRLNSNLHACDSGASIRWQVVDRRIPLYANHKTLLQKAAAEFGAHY", "assay": "Whole-cell patch clamp, antagonism of TRPM2 activation by 100 μM ADPR in HEK293 clone TRPM2#24", "type": "cell-based", "conditions": "for Antagonist activity at TRPM2, in words: analogue concentration not printed in the sentence (most analogues tested at 900 μM); for Mean outward current of 100 μM ADPR (1) infusion: mean ± SEM"}, "TRPM2": {"test_system": "TRPM2", "set-up": "method as in PMID 20650899", "conditions": "even at 60-fold excess of 88 over 1; cited from earlier work"}, "human neutrophils": {"test_system": "human neutrophils", "assay": "Chemotaxis (migration) of primary human neutrophils in fMLP gradient, μ-Slide Chemotaxis", "type": "cell-based", "conditions": "50 nM fMLP gradient; fMLP alone, or with 1.5 mM EGTA, or with 100 μM 8-Ph-ADPR (5); 1 h tracking"}, "TRPM2 channel": {"test_system": "TRPM2 channel", "conditions": "read-out: TRPM2 inhibition IC50; cited from earlier work"}, "murine neutrophils": {"test_system": "murine neutrophils", "set-up": "method as in PMID 18025229", "conditions": "cited from earlier work"}, "[1]": {"conditions": "footnote d: could only be tested at 100 μM due to solubility difficulties, 100 μM ADPR, 0.1% DMSO, read-out: Antagonism at TRPM2 (IC50), result as symbol"}, "[2]": {"conditions": "against 100 μM ADPR (1) in pipet solution, outward current at +15 mV, HEK293 clone TRPM2#24, read-out: Antagonism at TRPM2 (IC50)"}, "[3]": {"conditions": "analogue 100 μM, equimolar to 100 μM ADPR in pipet solution"}, "[4]": {"conditions": "analogue 900 μM with 100 μM ADPR in pipet solution"}, "[5]": {"conditions": "analogue tested at 900 μM against 100 μM ADPR, footnote c: antagonistic effect observed but not statistically significant, read-out: Antagonism at TRPM2 (IC50), result as symbol"}}, "note": "pIC50: −log10 of the molar value. “Also recorded” adds a separate entry of the source. Read-outs that look alike come from different tables or passages of the source."}
{"molecule": "Nc1ncnc2c1ncn2[C@@H]1O[C@H](COP(=O)(O)OP(=O)(O)O)[C@@H](O)[C@H]1O", "note": "[compound 44, adenosine 5′-diphosphate, reference compound]", "values": [{"measurement": "Antagonist activity at TRPM2, in words", "setting": "human TRPM2; 100 μM ADPR", "value": "inactive"}]}
{"molecule": "CCCCNc1c(NC[C@H]2O[C@@H](n3cnc4c(N)ncnc43)[C@H](O)[C@@H]2O)c(=O)c1=O", "note": "[compound 66, 3-(5′-Amino-5′-deoxyadenosine)-4-butylamino-cyclobut-3-ene-1,2-dione]", "values": [{"measurement": "pIC50", "setting": "human TRPM2; [1]", "value": "< 3.05"}]}
{"molecule": "Nc1ncnc2c1ncn2[C@H]1C[C@H](O)[C@@H](COP(=O)(O)O)O1", "note": "[compound 31, 2′-deoxy-AMP, reference compound]", "values": [{"measurement": "Antagonist activity at TRPM2, in words", "setting": "human TRPM2; 100 μM ADPR", "value": "weak antagonist"}, {"measurement": "pIC50", "setting": "human TRPM2; [2]", "value": "3.05 to 4.00"}, {"measurement": "Effect on activation of TRPM2 by ADPR (1), in words", "setting": "human TRPM2; [3]", "value": "antagonist effect was lost"}, {"measurement": "Effect on activation of TRPM2 by ADPR (1), in words", "setting": "human TRPM2; [4]", "value": "suppressed activation of TRPM2"}]}
{"molecule": "Nc1ncnc2c1ncn2[C@@H]1O[C@H](COP(=O)(O)O)[C@@H](O)[C@H]1O", "note": "[compound 88, adenosine 5′-monophosphate, reference compound]", "values": [{"measurement": "Antagonist activity at TRPM2, in words", "setting": "human TRPM2; 100 μM ADPR", "value": "no antagonist activity; also recorded: ineffective"}, {"measurement": "Inhibition of ADPR-mediated currents, in words", "setting": "TRPM2", "value": "not shown any inhibition"}]}
{"molecule": "O=c1[nH]cnc2c1ccn2[C@@H]1O[C@H](COP(=O)(O)OP(=O)(O)OC[C@H]2OC(O)[C@H](O)[C@@H]2O)[C@@H](O)[C@H]1O", "note": "(stereo partly shown) [compound 14, 7-Deaza-IDPR]", "values": [{"measurement": "Antagonist activity at TRPM2, in words", "setting": "human TRPM2; 100 μM ADPR", "value": "without significant effect"}, {"measurement": "pIC50", "setting": "human TRPM2; [5]", "value": "< 3.05"}]}
{"molecule": "Nc1ncnc2c1ncn2[C@@H]1O[C@H](CNc2c(NC3CCCC3)c(=O)c2=O)[C@@H](O)[C@H]1O", "note": "[compound 65, 3-(5′-Amino-5′-deoxyadenosine)-4-(cyclopentylamino)-cyclobut-3-ene-1,2-dione]", "values": [{"measurement": "pIC50", "setting": "human TRPM2; [1]", "value": "< 3.05"}]}
{"molecule": "O=C(O)CN(CCOCCOCCN(CC(=O)O)CC(=O)O)CC(=O)O", "note": "[EGTA, reference compound]", "values": [{"measurement": "Center of mass ∥ (mean movement in the y direction along fMLP gradient)", "setting": "human neutrophils", "value": 32.6, "unit": "μm"}]}
{"molecule": "copper ions", "values": [{"measurement": "pIC50", "setting": "TRPM2 channel", "value": 5.59}]}
{"molecule": "Nc1ncnc2c1ncn2[C@@H]1O[C@H](COS(=O)(=O)NC(=O)c2ccccc2O)[C@@H](O)[C@H]1O", "note": "[compound 76, salicyl-adenosine monosulfamide]", "values": [{"measurement": "Effect on activation of TRPM2 by ADPR (1), in words", "setting": "human TRPM2; [4]", "value": "noticeable antagonist activity"}]}
{"molecule": "Nc1ncnc2c1nc(-c1ccccc1)n2[C@@H]1O[C@H](Cn2cc(COC[C@H]3OC(O)[C@H](O)[C@@H]3O)nn2)[C@@H](O)[C@H]1O", "note": "(stereo partly shown) [compound 73, 1-(5′-Deoxy-8-phenyladenosine)-4-(2″,3″-O-isopropylidene-5″-O-methylribosyl)-1,2,3-triazole]", "values": [{"measurement": "Effect on activation of TRPM2 by ADPR (1), in words", "setting": "human TRPM2; [3]", "value": "none of these compounds showed antagonist activity"}, {"measurement": "pIC50", "setting": "human TRPM2; [1]", "value": "< 3.05"}]}
{"molecule": "Nc1ncnc2c1nc(-c1ccccc1)n2[C@@H]1O[C@H](COP(=O)(O)OP(=O)(O)OC2CCCC2)[C@@H](O)[C@H]1O", "note": "[compound 84]", "values": [{"measurement": "Effect on activation of TRPM2 by ADPR (1), in words", "setting": "human TRPM2; [3]", "value": "significant antagonist activity"}]}
{"molecule": "O=c1[nH]cnc2c1ncn2[C@@H]1O[C@H](COP(=O)(O)OP(=O)(O)OC[C@H]2OC(O)[C@H](O)[C@@H]2O)[C@@H](O)[C@H]1O", "note": "(stereo partly shown) [compound 13, Inosine-5′-diphosphoribose]", "values": [{"measurement": "Antagonist activity at TRPM2, in words", "setting": "human TRPM2; 100 μM ADPR", "value": "did not antagonize activation of TRPM2"}, {"measurement": "pIC50", "setting": "human TRPM2; [5]", "value": "< 3.05"}]}
{"molecule": "Nc1ncnc2c1ncn2CCCCOP(=O)(O)OP(=O)(O)OC[C@H]1OC(O)[C@H](O)[C@@H]1O", "note": "(stereo partly shown) [compound 30, 9-(4-Hydroxybutyl)adenine-5′-diphosphoribose]", "values": [{"measurement": "Antagonism at TRPM2 (IC50)", "setting": "human TRPM2; against 100 μM ADPR (1) in pipet solution, outward current at +15 mV, HEK293 clone TRPM2#24", "value": "upper micromolar range"}, {"measurement": "Effect on activation of TRPM2 by ADPR (1), in words", "setting": "human TRPM2; [3]", "value": "no inhibition"}, {"measurement": "Effect on activation of TRPM2 by ADPR (1), in words", "setting": "human TRPM2; [4]", "value": "nearly complete inhibition"}]}
{"molecule": "Nc1ncnc2c1ncn2[C@@H]1O[C@H](CNc2c(NC[C@H]3O[C@@H](O)[C@H](O)[C@@H]3O)c(=O)c2=O)[C@@H](O)[C@H]1O", "note": "[compound 64, 3-(5′-Amino-5′-deoxyadenosine)-4-(5″-amino-5″-deoxy-β-D-ribofuranose)cyclobut-3-ene-1,2-dione]", "values": [{"measurement": "pIC50", "setting": "human TRPM2; [1]", "value": "< 3.05"}]}
{"molecule": "Nc1ncnc2c1nc(Br)n2[C@@H]1O[C@H](COP(=O)(O)OP(=O)(O)OC[C@H]2OC(O)[C@H](O)[C@@H]2O)[C@@H](O)[C@H]1O", "note": "(stereo partly shown) [compound 4, 8-Br-ADPR, reference compound]", "values": [{"measurement": "Effect on activation of TRPM2 by ADPR (1), in words", "setting": "human TRPM2; [4]", "value": "significantly inhibited TRPM2 activation"}, {"measurement": "Sensitivity of Ca2+ signalling and chemotaxis of murine neutrophils, in words", "setting": "murine neutrophils", "value": "very sensitive"}]}
{"molecule": "Nc1ncnc2c1ncn2[C@@H]1O[C@H](COP(=O)(O)OP(=O)(O)OC[C@H]2OC(O)[C@H](O)[C@@H]2O)[C@@H](O)[C@H]1O", "note": "(stereo partly shown) [compound 1, Adenosine 5′-diphosphoribose]", "values": [{"measurement": "Mean outward current of 100 μM ADPR (1) infusion", "setting": "human TRPM2; control of the set of experiments for 4, n = 16", "value": "1.13 ± 0.14", "unit": "nA"}, {"measurement": "Mean outward current of 100 μM ADPR (1) infusion", "setting": "human TRPM2; control of the set of experiments for 5, n = 16", "value": "1.17 ± 0.13", "unit": "nA"}, {"measurement": "Mean outward current of 100 μM ADPR (1) infusion", "setting": "human TRPM2; control of the set of experiments for 6, n = 20", "value": "1.70 ± 0.25", "unit": "nA"}, {"measurement": "Mean outward current of 100 μM ADPR (1) infusion", "setting": "human TRPM2; control of the set of experiments for 7, n = 22", "value": "1.25 ± 0.14", "unit": "nA"}, {"measurement": "Mean outward current of 100 μM ADPR (1) infusion", "setting": "human TRPM2; control of the set of experiments for 84, n = 8", "value": "1.44 ± 0.20", "unit": "nA"}, {"measurement": "Mean outward current of 100 μM ADPR (1) infusion", "setting": "human TRPM2; control of the set of experiments for 86, n = 15", "value": "1.23 ± 0.22", "unit": "nA"}]}
{"molecule": "Nc1ncnc2c1nc(Cl)n2[C@@H]1O[C@H](COP(=O)(O)O)[C@@H](O)[C@H]1O", "note": "[compound 87, 8-Cl-AMP, reference compound]", "values": [{"measurement": "Effect on activation of TRPM2 by ADPR (1), in words", "setting": "human TRPM2; [4]", "value": "no antagonist effect"}, {"measurement": "pIC50", "setting": "human TRPM2; [5]", "value": "< 3.05"}]}
{"molecule": "Nc1ncnc2c1nc(-c1ccc(CC(N)C(=O)O)cc1)n2[C@@H]1O[C@H](COP(=O)(O)O)[C@@H](O)[C@H]1O", "note": "(stereo partly shown) [compound 9, 8-(4-(2-Aminopropanoic acid)phenyl)adenosine-5′-monophosphate]", "values": [{"measurement": "pIC50", "setting": "human TRPM2; [2]", "value": "3.05 to 4.00"}, {"measurement": "Effect on activation of TRPM2 by ADPR (1), in words", "setting": "human TRPM2; [3]", "value": "antagonist effect was lost"}, {"measurement": "Effect on activation of TRPM2 by ADPR (1), in words", "setting": "human TRPM2; [4]", "value": "suppressed activation of TRPM2"}]}
{"molecule": "Nc1ncnc2c1ncn2[C@@H]1O[C@H](COP(=O)(O)OP(=O)(O)OC2CCCC2)[C@@H](O)[C@H]1O", "note": "[compound 80, β-Cyclopentyl-ADP]", "values": [{"measurement": "Effect on activation of TRPM2 by ADPR (1), in words", "setting": "human TRPM2; [4]", "value": "partial inhibition"}]}
{"molecule": "Nc1ncnc2c1ncn2[C@@H]1O[C@H](COP(=O)(O)OP(=O)(O)OP(=O)(O)OC[C@H]2OC(O)[C@H](O)[C@@H]2O)[C@@H](O)[C@H]1O", "note": "(stereo partly shown) [compound 47, Adenosine Triphosphoribose]", "values": [{"measurement": "Effect on activation of TRPM2 by ADPR (1), in words", "setting": "human TRPM2; [4]", "value": "some antagonist effect"}, {"measurement": "pIC50", "setting": "human TRPM2; [5]", "value": "< 3.05"}]}
{"molecule": "CCCCCCNc1c(NC[C@H]2O[C@@H](n3cnc4c(N)ncnc43)[C@H](O)[C@@H]2O)c(=O)c1=O", "note": "[compound 67, 3-(5′-Amino-5′-deoxyadenosine)-4-(hexylamino)cyclobut-3-ene-1,2-dione]", "values": [{"measurement": "pIC50", "setting": "human TRPM2; [1]", "value": "< 3.05"}]}
{"molecule": "Nc1nc(F)nc2c1ncn2[C@@H]1O[C@H](COP(=O)(O)OP(=O)(O)OC[C@H]2OC(O)[C@H](O)[C@@H]2O)[C@@H](O)[C@H]1O", "note": "(stereo partly shown) [compound 16, 2-F-ADPR]", "values": [{"measurement": "Antagonist activity at TRPM2, in words", "setting": "human TRPM2; 100 μM ADPR", "value": "did not antagonize activation of TRPM2"}, {"measurement": "pIC50", "setting": "human TRPM2; [5]", "value": "< 3.05"}]}
{"molecule": "Nc1ncnc2c1nc(-c1ccccc1)n2[C@H]1C[C@H](O)[C@@H](COP(=O)(O)OP(=O)(O)OC[C@H]2OC(O)[C@H](O)[C@@H]2O)O1", "note": "(stereo partly shown) [compound 86, 8-Phenyl-2′-deoxyadenosine-5′-diphosphoribose]", "values": [{"measurement": "Effect on activation of TRPM2 by ADPR (1), in words", "setting": "human TRPM2; [4]", "value": "completely inhibited activation of TRPM2"}]}
